Measured values as given in patent US20260242418A1, “CYCLIC PEPTIDES WITH ANTIBACTERIAL ACTIVITY AGAINST MULTIDRUG RESISTANT (MDR) PATHOGENS” (priority 2022, published 2026).
In brackets after ≈: the same amount, converted by molar mass.

Experiments:
Acinetobacter baumannii = type: cell-based
From the text: (§1) Minimum Inhibitory Concentration (MIC) of a peptide of SEQ D NO: 4 (abbreviated PLP-3) and colistin against a collection of clinically relevant and commercially available bacterial strains was obtained via broth microdilution. The protocol for antimicrobial activity determination, detailed below, consisted in a modification of Clinical & Laboratory Standards Institute (CLSI) Guidelines.
(§2) MIC is the value defined as the lowest concentration of an antimicrobial, in these tests either PLP-3 or colistin, which inhibits the macroscopic growth of a bacterial strain after 18-22 h incubation at 37° C. The results from these assays are obtained via visual identification of the bacterial bottom at the end of the wells of the testing plate. Since the wells contain decreasing concentrations of the compounds, the final result is indicated as a concentration, MIC, expressed in μg/mL of the agent (in this case PLP-3 or colistin).
(§3) Bacterial strains were streaked in Columbia Agar plates (Columbia Agar with 5% Sheep Blood 90 mm Stacker plates, BD) and incubated overnight at 37° C. Polypropylene round bottomed 96-well plates were filled with 50 μL/well of Mueller-Hinton Broth (MHB, CM0405, 500 g, ThermoFisher Scientific™ Oxoid™) and 50 μL of either colistin or PLP-3 (at 4× the chosen initial concentration of the test) were added to the first well of each row of the plate followed by serial dilutions up until the 10th column of the plate.
(§4) Finally, strain inoculums were prepared by diluting 1:100 0.5 McFarland solutions in MHB. Plates were then inoculated with 50 μL of the inoculums and covered with film before 18 to 22 h incubation at 37 C.
(§5) Three biological and three technical replicates were performed per strain.
(§6) Broth microdilution testing of 15 strains of each species provided MIC50 and […] values (Table 4). Strains were either from clinical origin, relevant to current clinical situation, or commercially available strains belonging to the American Type Culture Collection (ATCC), namely: A. baumannii 17978 and 19606, K. pneumoniae 13883 and P. aeruginosa 27853.
(§7) This panel represents an example of relevant MDR, colistin resistant and colistin susceptible strains from which to compare results. The minimum inhibitory concentration (MIC) is the lowest concentration of a chemical, usually a drug, which prevents visible growth of a bacterium or bacteria. MIC50 represents the antimicrobial concentration value that inhibits the growth of 50% of the bacterial strains and […] of each species from the tested panel of strains. Being colistin both a peptide and a last-resource antibiotic, it was included in these assays for comparison against a commercially available antibiotic.

Klebsiella pneumoniae = type: cell-based
From the text: as §1, §2, §3, §4, §5, §6, §7

P. aeruginosa ATCC 27853 = experiment: Time-kill curves; type: cell-based, Pseudomonas aeruginosa
Protocol: Time-kill curves (TKC) determine the in vitro antimicrobial activity of a compound, monitoring the bacterial growth over a certain period of time.
This assay was performed for two Acinetobacter baumannii strains (a clinical strain and ATCC 19606 strain) and one Pseudomonas aeruginosa ATCC 27853 strain, monitoring its growth during 24 hours at different PLP-3 (SEQ ID NO: 4) concentrations: MIC, 2×MIC, 4×MIC, 8×MIC. Moreover, in each TKC assay a negative and a positive growth control was stablished.
In different 13MI tubes, a certain concentration of PLP-3 peptide, Mueller-Hinton Broth (MHB, 1214, Condalab) and a fixed inoculum concentration were added. The final inoculum concentration in each tube was […]. Tubes were incubated at 37° C. at 180 rpm during 24 hours. Aliquots of the liquid culture were taken at different times: 0 h, 10 minutes, 30 minutes, 1 h, 2 h, 4 h, 8 h and 24 h. For each taken aliquot, serial dilutions with Phosphate Saline Buffer 1× (PBS 1×) were made and streaked in Luria-Bertani Agar (LB, 1083, Condalab). LB Agar plates were incubated at 37° C. during 18-22 hours. Grown colonies in LB Agar were counted in order to quantify the inoculum in each time period.
Three biological replicates were performed for each strain, and the mean and standard deviation was determined each time.

[1] = panel of 15 A. baumannii strains
[2] = panel of 15 K. pneumoniae strains

Compound: CC(C)C[C@@H]1NC(=O)[C@H](CCCNC(=N)N)NC(=O)[C@H](CCCNC(=N)N)NC(=O)[C@H](CCCNC(=N)N)NC(=O)[C@H]2CCCN2C(=O)[C@H](CCCNC(=N)N)NC(=O)[C@H](CCCNC(=N)N)NC(=O)[C@H](C(C)C)NC(=O)[C@@H]2CSSC[C@H](NC1=O)C(=O)N[C@@H](Cc1ccccc1)C(=O)N[C@@H](C(C)C)C(=O)N[C@@H](CCCNC(=N)N)C(=O)N1CCC[C@@H]1C(=O)N[C@@H](CCCCN)C(=O)N[C@@H](Cc1ccccc1)C(=O)N[C@@H](C(C)C)C(=O)N[C@@H](C(C)C)C(=O)N2 [PLP-3, cyclo[RRRLCFVRPKFVVCVRRP]]
- Range of MICs (Acinetobacter baumannii): 1 to 2 µg/mL
- MIC50 (Acinetobacter baumannii; [1]): 1 µg/mL (≈ 0.441 µM)
- MIC90 (Acinetobacter baumannii; [1]): 2 µg/mL (≈ 0.882 µM)
- MIC range (Klebsiella pneumoniae): 2 to 32 µg/mL
- MIC50 (Klebsiella pneumoniae; [2]): 4 µg/mL (≈ 1.76 µM)
- MIC90 (Klebsiella pneumoniae; [2]): 16 µg/mL (≈ 7.06 µM)
- log(CFU/mL) Mean (P. aeruginosa ATCC 27853; 2xMIC (16 μg/mL), 0.00 h): 5.52 log(CFU/mL)
- log(CFU/mL) Mean (P. aeruginosa ATCC 27853; 2xMIC (16 μg/mL), 0.17 h): 4.48 log(CFU/mL)
- log(CFU/mL) Mean (P. aeruginosa ATCC 27853; 2xMIC (16 μg/mL), 0.50 h): 3.75 log(CFU/mL)
- log(CFU/mL) Mean (P. aeruginosa ATCC 27853; 2xMIC (16 μg/mL), 1.00 h): 2.97 log(CFU/mL)
- log(CFU/mL) Mean (P. aeruginosa ATCC 27853; 2xMIC (16 μg/mL), 2.00 h): 0.88 log(CFU/mL)
- log(CFU/mL) Mean (P. aeruginosa ATCC 27853; 2xMIC (16 μg/mL), 4.00 h): 0.00 log(CFU/mL)
- log(CFU/mL) Mean (P. aeruginosa ATCC 27853; 2xMIC (16 μg/mL), 8.00 h): 0.00 log(CFU/mL)
- log(CFU/mL) Mean (P. aeruginosa ATCC 27853; 2xMIC (16 μg/mL), 24.00 h): 0.00 log(CFU/mL)
- log(CFU/mL) Mean (P. aeruginosa ATCC 27853; 4xMIC (32 μg/mL), 0.00 h): 5.52 log(CFU/mL)
- log(CFU/mL) Mean (P. aeruginosa ATCC 27853; 4xMIC (32 μg/mL), 0.17 h): 4.32 log(CFU/mL)
- log(CFU/mL) Mean (P. aeruginosa ATCC 27853; 4xMIC (32 μg/mL), 0.50 h): 3.46 log(CFU/mL)
- log(CFU/mL) Mean (P. aeruginosa ATCC 27853; 4xMIC (32 μg/mL), 1.00 h): 1.23 log(CFU/mL)
- log(CFU/mL) Mean (P. aeruginosa ATCC 27853; 4xMIC (32 μg/mL), 2.00 h): 0.57 log(CFU/mL)
- log(CFU/mL) Mean (P. aeruginosa ATCC 27853; 4xMIC (32 μg/mL), 4.00 h): 0.00 log(CFU/mL)
- log(CFU/mL) Mean (P. aeruginosa ATCC 27853; 4xMIC (32 μg/mL), 8.00 h): 0.00 log(CFU/mL)
- log(CFU/mL) Mean (P. aeruginosa ATCC 27853; 4xMIC (32 μg/mL), 24.00 h): 0.00 log(CFU/mL)
- log(CFU/mL) Mean (P. aeruginosa ATCC 27853; 8xMIC (64 μg/mL), 0.00 h): 5.52 log(CFU/mL)
- log(CFU/mL) Mean (P. aeruginosa ATCC 27853; 8xMIC (64 μg/mL), 0.17 h): 4.14 log(CFU/mL)
- log(CFU/mL) Mean (P. aeruginosa ATCC 27853; 8xMIC (64 μg/mL), 0.50 h): 1.43 log(CFU/mL)
- log(CFU/mL) Mean (P. aeruginosa ATCC 27853; 8xMIC (64 μg/mL), 1.00 h): 0.00 log(CFU/mL)
- log(CFU/mL) Mean (P. aeruginosa ATCC 27853; 8xMIC (64 μg/mL), 2.00 h): 0.00 log(CFU/mL)
- log(CFU/mL) Mean (P. aeruginosa ATCC 27853; 8xMIC (64 μg/mL), 4.00 h): 0.00 log(CFU/mL)
- log(CFU/mL) Mean (P. aeruginosa ATCC 27853; 8xMIC (64 μg/mL), 8.00 h): 0.00 log(CFU/mL)
- log(CFU/mL) Mean (P. aeruginosa ATCC 27853; 8xMIC (64 μg/mL), 24.00 h): 0.00 log(CFU/mL)
- log(CFU/mL) Mean (P. aeruginosa ATCC 27853; MIC (8 μg/mL), 0.00 h): 5.52 log(CFU/mL)
- log(CFU/mL) Mean (P. aeruginosa ATCC 27853; MIC (8 μg/mL), 0.17 h): 4.81 log(CFU/mL)
- log(CFU/mL) Mean (P. aeruginosa ATCC 27853; MIC (8 μg/mL), 0.50 h): 4.34 log(CFU/mL)
- log(CFU/mL) Mean (P. aeruginosa ATCC 27853; MIC (8 μg/mL), 1.00 h): 3.67 log(CFU/mL)
- log(CFU/mL) Mean (P. aeruginosa ATCC 27853; MIC (8 μg/mL), 2.00 h): 3.15 log(CFU/mL)
- log(CFU/mL) Mean (P. aeruginosa ATCC 27853; MIC (8 μg/mL), 4.00 h): 2.63 log(CFU/mL)
- log(CFU/mL) Mean (P. aeruginosa ATCC 27853; MIC (8 μg/mL), 8.00 h): 2.10 log(CFU/mL)
- log(CFU/mL) Mean (P. aeruginosa ATCC 27853; MIC (8 μg/mL), 24.00 h): 5.08 log(CFU/mL)
- bactericidal or bacteriostatic activity (P. aeruginosa ATCC 27853; time-kill curves over 24 hours, MIC to 8xMIC): bactericidal effect
